Measured values from patent US9518107B2, “Pharmaceutical compositions containing polypeptides derived from α-1 antitrypsin and methods of use thereof” (YISSUM RESEARCH DEVELOPMENT COMPANY OF THE HEBREW …, priority 2010, dated 2016).

System: Female C57B1/6 mice
Test: LPS induced sepsis in mice, UBE i.v.
Type: in vivo
Details: i.v. within 1 hour after LPS 1.2 mg/mouse; 48 hours after LPS; 0.1 and 1.0 μg/kg; FIG. 20B
Description: Female C57B1/6 mice 7-8 weeks of age were injected i.p with LPS 1.2 mg/mouse. Thereafter (within 1 hour) UBE peptide as depicted by SEQ ID NO: 2 was injected i.v. (100 μl) at different doses; control group received PBS. Survival of mice was monitored. n=10 for control group, n=9 for each UBE-treated group.

Question: For “SMPPIVRFDHPFLFIIFEEHTQSPLFVGKVVDPTHK (listed as Mus musculus) [UBE, 36-mer peptide corresponding to residues 378-413 of Mus musculus alpha-1-antitrypsin (serpin a1c)]”, which “reduction of LPS-induced mortality” value is on record?
Answer: 33%
